# Reference: US20140179664A1, “Heterocyclyl Pyrimidine Analogues As JAK Inhibitors” (Cellzome Limited, priority 2011, published 2014)
# What was measured:
# Type in all cases: binding
# [1] = biological target: T1, JAK1 (Homo sapiens, UniProt P23458); assay: Kinobeads assay, JAK1; details: mixed Molt4/Ramos lysate, read-out: Inhibition values (IC50) JAK1
# T1 construct: endogenous in cells; host or cells: Molt4 (ATCC CRL-1582) and Ramos (ATCC CRL-1596), mixed lysate 1:2
# Outline: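 Competitive pulldown in combined Molt4 and Ramos lysates (1 vs 2 volumes): compound, as a nine-point 1:3 series, and kinobeads were shaken together for 3 hours in a cold room. Captured JAK1 was quantified on an infrared-read antibody dot blot and IC50 calculated. Controls held 2% DMSO without compound.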
# [2] = biological target: T2, JAK2 (Homo sapiens, UniProt O60674); assay: Kinobeads assay, JAK2; details: mixed Molt4/Ramos lysate, read-out: Inhibition values (IC50) JAK2
# T2 construct: endogenous in cells; host or cells: Molt4 (ATCC CRL-1582) and Ramos (ATCC CRL-1596), mixed lysate 1:2
# T2 sequence (O60674 whole entry): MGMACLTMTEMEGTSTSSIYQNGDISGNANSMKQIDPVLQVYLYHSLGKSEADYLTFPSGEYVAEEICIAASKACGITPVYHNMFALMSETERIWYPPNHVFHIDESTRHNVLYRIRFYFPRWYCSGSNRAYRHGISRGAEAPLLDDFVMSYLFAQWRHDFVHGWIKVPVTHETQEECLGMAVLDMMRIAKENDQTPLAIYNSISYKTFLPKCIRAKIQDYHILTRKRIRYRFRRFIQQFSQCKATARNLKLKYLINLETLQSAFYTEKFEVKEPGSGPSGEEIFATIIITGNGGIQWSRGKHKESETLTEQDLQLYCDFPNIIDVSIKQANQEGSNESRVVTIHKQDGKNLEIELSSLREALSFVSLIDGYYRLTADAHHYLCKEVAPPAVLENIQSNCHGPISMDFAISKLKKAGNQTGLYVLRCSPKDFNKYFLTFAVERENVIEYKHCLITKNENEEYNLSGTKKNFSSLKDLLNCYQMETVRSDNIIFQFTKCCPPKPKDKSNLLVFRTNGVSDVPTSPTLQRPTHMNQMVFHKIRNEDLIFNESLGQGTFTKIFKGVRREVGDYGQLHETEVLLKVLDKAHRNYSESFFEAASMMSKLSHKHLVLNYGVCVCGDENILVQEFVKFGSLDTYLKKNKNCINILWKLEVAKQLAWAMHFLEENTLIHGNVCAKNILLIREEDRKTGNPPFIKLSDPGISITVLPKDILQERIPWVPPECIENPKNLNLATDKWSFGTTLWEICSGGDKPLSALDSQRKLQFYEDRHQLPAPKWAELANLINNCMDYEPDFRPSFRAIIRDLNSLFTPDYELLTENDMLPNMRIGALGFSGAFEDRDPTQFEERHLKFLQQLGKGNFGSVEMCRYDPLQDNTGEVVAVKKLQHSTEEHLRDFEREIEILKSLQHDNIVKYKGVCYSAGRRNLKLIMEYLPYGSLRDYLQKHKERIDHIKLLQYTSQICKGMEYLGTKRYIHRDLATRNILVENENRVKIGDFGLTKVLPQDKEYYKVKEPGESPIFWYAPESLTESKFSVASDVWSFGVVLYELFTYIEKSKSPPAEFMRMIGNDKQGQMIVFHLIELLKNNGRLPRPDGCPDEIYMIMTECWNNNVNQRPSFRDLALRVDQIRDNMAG
# Outline: (§1)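 IC50s come from capture competition: compound at various concentrations versus an immobilized aminopyrido-pyrimidine ligand for kinases in 1:2 Molt4/Ramos lysate (10 mg/mL), 3 h in a cold room. Captured JAK-family kinases were measured by specific-antibody dot blot with Odyssey infrared detection.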
# [3] = biological target: T3, TYK2 (Homo sapiens, UniProt P29597); assay: Kinobeads assay, TYK2; details: mixed Molt4/Ramos lysate, read-out: Inhibition values (IC50) TYK2
# T3 construct: endogenous in cells; host or cells: Molt4 (ATCC CRL-1582) and Ramos (ATCC CRL-1596), mixed lysate 1:2
# T3 sequence (P29597 whole entry): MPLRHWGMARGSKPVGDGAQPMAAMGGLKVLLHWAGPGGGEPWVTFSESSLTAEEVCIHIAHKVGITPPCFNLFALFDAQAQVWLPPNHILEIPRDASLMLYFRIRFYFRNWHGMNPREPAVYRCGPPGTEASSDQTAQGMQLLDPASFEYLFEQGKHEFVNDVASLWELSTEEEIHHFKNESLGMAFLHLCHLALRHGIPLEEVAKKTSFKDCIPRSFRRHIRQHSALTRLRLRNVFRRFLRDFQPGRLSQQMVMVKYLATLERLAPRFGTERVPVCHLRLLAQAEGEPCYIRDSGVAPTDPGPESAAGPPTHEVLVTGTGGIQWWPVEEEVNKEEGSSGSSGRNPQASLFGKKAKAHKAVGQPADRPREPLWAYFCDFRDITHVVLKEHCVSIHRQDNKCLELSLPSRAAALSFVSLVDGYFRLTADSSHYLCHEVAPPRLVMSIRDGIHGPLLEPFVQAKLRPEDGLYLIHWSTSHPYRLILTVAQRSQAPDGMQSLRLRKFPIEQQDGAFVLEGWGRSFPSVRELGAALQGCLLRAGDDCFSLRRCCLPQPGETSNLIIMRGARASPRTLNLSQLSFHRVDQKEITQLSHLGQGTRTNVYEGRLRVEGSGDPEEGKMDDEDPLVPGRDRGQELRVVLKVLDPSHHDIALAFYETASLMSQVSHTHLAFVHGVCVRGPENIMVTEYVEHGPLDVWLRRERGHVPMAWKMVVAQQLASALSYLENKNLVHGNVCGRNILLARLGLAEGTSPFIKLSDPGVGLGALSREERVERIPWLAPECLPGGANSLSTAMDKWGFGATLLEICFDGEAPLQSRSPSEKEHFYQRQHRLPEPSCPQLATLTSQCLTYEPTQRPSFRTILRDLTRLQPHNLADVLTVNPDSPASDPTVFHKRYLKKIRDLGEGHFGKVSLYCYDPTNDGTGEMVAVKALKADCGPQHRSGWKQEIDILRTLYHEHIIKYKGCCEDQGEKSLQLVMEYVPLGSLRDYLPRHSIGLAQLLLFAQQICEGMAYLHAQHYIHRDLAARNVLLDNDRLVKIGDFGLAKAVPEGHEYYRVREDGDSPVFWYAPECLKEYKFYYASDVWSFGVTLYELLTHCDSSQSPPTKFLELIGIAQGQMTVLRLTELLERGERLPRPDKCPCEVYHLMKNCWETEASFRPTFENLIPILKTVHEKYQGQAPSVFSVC
# Outline: as §1
# T1 sequence (P23458 whole entry): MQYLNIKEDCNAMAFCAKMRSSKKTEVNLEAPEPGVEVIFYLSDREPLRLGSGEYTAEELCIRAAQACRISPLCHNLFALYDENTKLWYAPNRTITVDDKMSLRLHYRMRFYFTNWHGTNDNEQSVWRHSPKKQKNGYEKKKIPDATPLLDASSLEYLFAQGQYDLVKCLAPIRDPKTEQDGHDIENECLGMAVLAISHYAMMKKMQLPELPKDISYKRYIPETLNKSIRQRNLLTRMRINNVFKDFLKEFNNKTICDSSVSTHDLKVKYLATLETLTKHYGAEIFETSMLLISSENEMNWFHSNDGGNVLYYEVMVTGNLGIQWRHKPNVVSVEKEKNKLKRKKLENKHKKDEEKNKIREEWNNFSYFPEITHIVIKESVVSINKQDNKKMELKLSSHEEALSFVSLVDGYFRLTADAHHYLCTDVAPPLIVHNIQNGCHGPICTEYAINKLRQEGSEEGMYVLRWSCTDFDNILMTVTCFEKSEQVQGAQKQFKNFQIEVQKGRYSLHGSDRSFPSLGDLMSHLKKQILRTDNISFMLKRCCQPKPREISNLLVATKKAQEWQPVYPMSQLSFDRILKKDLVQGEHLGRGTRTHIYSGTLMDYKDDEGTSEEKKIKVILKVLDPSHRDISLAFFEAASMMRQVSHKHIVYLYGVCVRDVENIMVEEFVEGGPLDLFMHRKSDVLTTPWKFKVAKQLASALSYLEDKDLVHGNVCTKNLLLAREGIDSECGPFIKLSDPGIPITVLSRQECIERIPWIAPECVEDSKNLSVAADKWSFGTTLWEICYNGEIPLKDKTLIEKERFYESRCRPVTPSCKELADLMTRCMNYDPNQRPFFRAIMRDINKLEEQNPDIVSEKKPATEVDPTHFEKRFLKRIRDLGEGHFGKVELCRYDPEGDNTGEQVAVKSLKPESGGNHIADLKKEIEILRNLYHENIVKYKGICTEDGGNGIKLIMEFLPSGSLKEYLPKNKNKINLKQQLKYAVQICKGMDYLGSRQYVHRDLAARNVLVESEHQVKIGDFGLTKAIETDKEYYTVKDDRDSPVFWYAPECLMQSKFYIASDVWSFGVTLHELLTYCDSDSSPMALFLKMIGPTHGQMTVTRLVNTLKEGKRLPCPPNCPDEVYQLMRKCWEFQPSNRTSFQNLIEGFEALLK
IC50 [1],IC50 [2],IC50 [3],SMILES
100 to 1000 nM,1000 to 10000 nM,100 to 1000 nM,CN(C)CCCNC(=O)Cn1cc(Nc2ncc(Cl)c(N[C@H](CO)c3ccccc3)n2)cn1 [Compound 90]
100 to 1000 nM,1000 to 10000 nM,100 to 1000 nM,Cn1cc(Nc2ncc(Cl)c(N[C@H](CO)c3cccnc3)n2)cn1 [Compound 91]
100 to 1000 nM,1000 to 10000 nM,100 to 1000 nM,OCCn1cc(Nc2ncc(Cl)c(N[C@H](CO)c3cccnc3)n2)cn1 [Compound 92]
1000 to 10000 nM,1000 to 10000 nM,100 to 1000 nM,OCCn1cc(Nc2ncc(Cl)c(NC(CO)c3cccc(Br)c3)n2)cn1 (stereo not drawn) [Compound 93]

# The next lines start with the compound.
SMILES,IC50 [1],IC50 [2],IC50 [3]
Cn1cc(Nc2ncc(F)c(N[C@H](CO)c3ccccc3)n2)cn1 [Compound 3],1000 to 10000 nM,≥ 10000 nM,1000 to 10000 nM
Cn1cc(Nc2ncc(Cl)c(N[C@H](CO)c3cccc(F)c3)n2)cn1 [Compound 85],100 to 1000 nM,100 to 1000 nM,100 to 1000 nM
OCCn1cc(Nc2ncc(Cl)c(N[C@H](CO)c3cccc(F)c3)n2)cn1 [Compound 86],100 to 1000 nM,100 to 1000 nM,100 to 1000 nM
NC(=O)Cn1cc(Nc2ncc(Cl)c(N[C@H](CO)c3cccc(F)c3)n2)cn1 [Compound 87],< 100 nM,100 to 1000 nM,100 to 1000 nM
OC[C@@H](Nc1nc(Nc2cn[nH]c2)ncc1Cl)c1cccc(F)c1 [Compound 88],100 to 1000 nM,100 to 1000 nM,100 to 1000 nM
CN(C)CCNC(=O)Cn1cc(Nc2ncc(Cl)c(N[C@H](CO)c3ccccc3)n2)cn1 [Compound 89],100 to 1000 nM,1000 to 10000 nM,100 to 1000 nM
